Assay results from patent EP4725941A1, “ARYLAMIDE DERIVATIVE HAVING ANTITUMOR ACTIVITY” (priority 2020, dated 2021).

How the values were obtained:
MEK1 = biological target: T1, MEK1 (Homo sapiens, UniProt Q02750); experiment: MEK1-inhibiting activity, fluorescent polarization method (CRAF/MEK1/ERK2 cascade, IMAP); assay type: biochemical; settings: Table 3; read-out: MEK1 IC50
T1 construct: purchased Thermo Fisher Scientific Inc. (MEK1, CRAF); Carna Biosciences, Inc. (ERK2)
Experimental: The MEK1-inhibiting activity of the compounds listed in Table 3 below were evaluated by the fluorescent polarization method as described below.

BRAF = biological target: T2, BRAF (Homo sapiens, UniProt P15056); experiment: BRAF-inhibiting activity, time-resolved fluorescence-fluorescence resonance energy transfer assay; assay type: biochemical; settings: read-out: BRAF IC50; Table 3
T2 construct: purchased Eurofins Genomics KK; (BRAF); Thermo Fisher Scientific Inc. (MEK1)
T2 sequence (P15056 417-766 limits assumed): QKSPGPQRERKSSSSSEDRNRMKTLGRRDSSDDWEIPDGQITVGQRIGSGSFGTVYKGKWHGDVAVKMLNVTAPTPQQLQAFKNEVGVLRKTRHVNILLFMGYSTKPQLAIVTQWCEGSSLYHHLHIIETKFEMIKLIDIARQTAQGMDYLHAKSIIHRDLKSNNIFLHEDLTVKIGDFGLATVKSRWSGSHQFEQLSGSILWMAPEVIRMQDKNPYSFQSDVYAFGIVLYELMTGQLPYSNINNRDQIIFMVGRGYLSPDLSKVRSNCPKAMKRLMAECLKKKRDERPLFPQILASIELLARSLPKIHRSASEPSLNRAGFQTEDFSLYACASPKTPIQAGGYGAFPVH
Experimental: The BRAF-inhibiting activity of the compounds listed in Table 3 below was evaluated by the time-resolved fluorescence-fluorescence resonance energy transfer assay as described below.

A549 = experiment: Cell proliferation-inhibiting activity (ATP in viable cells, CellTiter-Glo), A549; assay type: cell-based, human; settings: A549, 96 h; human lung cancer cells, 4 days; read-out: A549 IC50
Calu-6 = experiment: Cell proliferation-inhibiting activity (ATP in viable cells, CellTiter-Glo), Calu-6; assay type: cell-based, human; settings: Calu-6, 96 h; human lung cancer cells, 4 days; read-out: Calu-6 IC50
NCI-H2122 = experiment: Cell proliferation-inhibiting activity (ATP in viable cells, CellTiter-Glo), NCI-H2122; assay type: cell-based, human; settings: NCI-H2122, 96 h; human lung cancer cells, 4 days; read-out: NCI-H2122 IC50
[1] = Human liver microsome stability; assay type: in vitro ADME; settings: human liver microsomes, pH 7.4

T1 sequence (Q02750 whole entry): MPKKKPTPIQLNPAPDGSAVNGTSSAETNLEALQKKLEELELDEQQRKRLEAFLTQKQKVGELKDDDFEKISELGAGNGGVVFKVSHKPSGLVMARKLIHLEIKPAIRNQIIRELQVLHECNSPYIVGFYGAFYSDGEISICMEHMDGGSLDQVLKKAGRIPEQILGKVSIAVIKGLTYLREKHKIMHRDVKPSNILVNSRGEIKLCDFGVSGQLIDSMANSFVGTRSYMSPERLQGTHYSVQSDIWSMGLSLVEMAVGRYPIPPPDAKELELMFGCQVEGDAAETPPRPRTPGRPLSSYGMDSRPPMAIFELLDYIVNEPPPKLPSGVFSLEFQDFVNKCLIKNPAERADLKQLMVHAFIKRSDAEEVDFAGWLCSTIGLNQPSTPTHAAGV

Row | Compound | IC50 (MEK1) | IC50 (BRAF) | IC50 (A549) | IC50 (Calu-6) | IC50 (NCI-H2122) | microsomal CLint at 0.99 µM [1]
1 | COCCNS(=O)(=O)Nc1nccc(Cc2cc(C(N)=O)c(Nc3ccc(I)cc3F)c(F)c2F)c1F [Compound A-33, 3,4-difluoro-2-(2-fluoro-4-iodoanilino)-5-[[3-fluoro-2-(2-methoxyethylsulfamoylamino)pyridin-4-yl]methyl]benzamide] | 10 nM | 2 nM | 27 nM | 68 nM | 8 nM | 6 µL/min/mg
2 | CC(C)CNS(=O)(=O)Nc1nccc(Cc2cc(C(N)=O)c(Nc3ccc(I)cc3F)c(F)c2F)c1F [Compound A-34, 3,4-difluoro-2-(2-fluoro-4-iodoanilino)-5-[[3-fluoro-2-(2-methylpropylsulfamoylamino)pyridin-4-yl]methyl]benzamide] | 81 nM | 3 nM | 27 nM | 79 nM | 12 nM | 17 µL/min/mg
3 | CC1(NS(=O)(=O)Nc2nccc(Cc3cc(C(N)=O)c(Nc4ccc(I)cc4F)c(F)c3F)c2F)CCC1 [Compound A-35, 3,4-difluoro-2-(2-fluoro-4-iodoanilino)-5-[[3-fluoro-2-[(1-methylcyclobutyl)sulfamoylamino]pyridin-4-yl]methyl]benzamide] | 66 nM | 28 nM | 21 nM | 34 nM | 4 nM | 15 µL/min/mg
4 | NC(=O)c1cc(Cc2ccnc(NS(=O)(=O)NCC3CC3)c2F)c(F)c(F)c1Nc1ccc(I)cc1F [Compound A-36] | 74 nM | 5 nM | 26 nM | 61 nM | 17 nM | 18 µL/min/mg
5 | CC(C)(C)NS(=O)(=O)Nc1nccc(Cc2cc(C(N)=O)c(Nc3ccc(I)cc3F)c(F)c2F)c1F [Compound A-37, 5-[[2-(tert-Butylsulfamoylamino)-3-fluoropyridin-4-yl]methyl]-3,4-difl uoro-2-(2-fluoro-4-iodoanilino)benzamide] | 50 nM | 7 nM | 21 nM | 26 nM | 7 nM | 10 µL/min/mg
6 | CCNS(=O)(=O)Nc1nccc(Cc2cc(C(N)=O)c(Nc3ccc(I)cc3F)c(F)c2F)c1F [Compound A-40, 5-[[2-(ethylsulfamoylamino)-3-fluoropyridin-4-yl]methyl]-3,4-d ifluoro-2-(2-fluoro-4-iodoanilino)benzamide] | 19 nM | 2 nM | 4 nM | 12 nM | 2 nM | 2 µL/min/mg
7 | CCCNS(=O)(=O)Nc1nccc(Cc2cc(C(N)=O)c(Nc3ccc(I)cc3F)c(F)c2F)c1F [Compound A-41, 3,4-difluoro-2-(2-fluoro-4-iodoanilino)-5-[[3-fluoro-2-(propylsulfamoylamino)pyridin-4-yl]methyl]benzamide] | 29 nM | 7 nM | 12 nM | 8 nM | 2 nM | 5 µL/min/mg
8 | NC(=O)c1cc(Cc2ccnc(NS(=O)(=O)NCCF)c2F)c(F)c(F)c1Nc1ccc(I)cc1F [Compound A-42, 3,4-difluoro-5-[[3-fluoro-2-(2-fluoroethylsulfamoylamino)pyridin-4-yl]methyl]-2-(2-fluoro-4-iodoanilino)benzamide] | 18 nM | 6 nM | 9 nM | 68 nM | 7 nM | 6 µL/min/mg
9 | CNS(=O)(=O)Nc1nccc(Cc2cc(C(=O)NOCCO)c(Nc3ccc(I)cc3F)c(F)c2F)c1F [Compound B-1, 3,4-difluoro-2-(2-fluoro-4-iodoanilino)-5-[[3-fluoro-2-(methylsulfamoylamino)pyridin-4-yl]methyl]-N-(2-hydroxyethoxy)benzamide] | 2 nM | 5 nM | 6 nM | 11 nM | 2 nM | 15 µL/min/mg
10 | CNS(=O)(=O)Nc1nccc(Cc2cc(C(=O)NOCCOC)c(Nc3ccc(I)cc3F)c(F)c2F)c1F [Compound B-2, 3,4-Difluoro-2-(2-fluoro-4-iodoanilino)-5-[[3-fluoro-2-(methylsulfamoylamino)pyridin-4-yl]methyl]-N-(2-methoxyethoxy)benzamide] | 4 nM | 3 nM | 1 nM | 7 nM | 1 nM | 53 µL/min/mg
11 | NC(=O)c1cc(Cc2ccnc(NS(N)(=O)=O)c2F)c(F)c(F)c1Nc1ccc(I)cc1F [Compound B-10, 3,4-Difluoro-2-(2-fluoro-4-iodoanilino)-5-[[3-fluoro-2-(sulfamoylamino)pyridin-4-yl]methyl]benzamide] | 22 nM | 11 nM | 72 nM | 33 nM | 8 nM | 3 µL/min/mg
12 | NC(=O)c1cc(Cc2ccnc(NS(=O)(=O)NC3CC3)c2F)c(F)c(F)c1Nc1ccc(I)cc1Cl [Compound B-11, 2-(2-Chloro-4-iodoanilino)-5-[[2-(cyclopropylsulfamoylamino)-3-fluor opyridin-4-yl]methyl]-3,4-difluorobenzamide] | 19 nM | 3 nM | 18 nM | 43 nM | 16 nM | 26 µL/min/mg
13 | O=C(NC1CC1)c1cc(Cc2ccnc(NS(=O)(=O)NC3CC3)c2F)c(F)c(F)c1Nc1ccc(I)cc1Cl [Compound B-12, 2-(2-Chloro-4-iodoanilino)-N-cyclopropyl-5-[[2-(cyclopropylsulfamoylamino)-3-fluoropyridin-4-yl]methyl]-3,4-difluorobenzamide] | 61 nM | 8 nM | 14 nM | 30 nM | 8 nM | 39 µL/min/mg
14 | CC(C)(C)ONC(=O)c1cc(Cc2ccnc(NS(=O)(=O)NC3CC3)c2F)c(F)c(F)c1Nc1ccc(I)cc1Cl [Compound B-13, 2-(2-Chloro-4-iodoanilino)-5-[[2-(cyclopropylsulfamoylamino)-3-fluor opyridin-4-yl]methyl]-3,4-difluoro-N-[(2-methylpropan-2-yl)oxy]benzamide] | 13 nM | 10 nM | 26 nM | 34 nM | 14 nM | 66 µL/min/mg
15 | NC(=O)c1cc(Cc2ccnc(NS(N)(=O)=O)c2)c(F)c(F)c1Nc1ccc(I)cc1F [Compound C-1, 3,4-Difluoro-2-(2-fluoro-4-iodoanilino)-5-[[2-(sulfamoylamino)pyridin-4-yl]methyl]benzamide] | 72 nM | 4 nM | 7 nM | 16 nM | 4 nM | 10 µL/min/mg
16 | CNS(=O)(=O)Nc1cccc(Cc2cc(C(=O)NC3CC3)c(Nc3ccc(I)cc3F)c(F)c2F)c1 [Compound C-6, N-Cyclopropyl-3,4-difluoro-2-(2-fluoro-4-iodoanilino)-5-[[3-(methylsulfamoylamino)phenyl]methyl]benzamide] | 268 nM | 9 nM | 6 nM | 31 nM | 4 nM | 74 µL/min/mg
17 | CCS(=O)(=O)Nc1cccc(Cc2cc(C(N)=O)c(Nc3ccc(I)cc3F)c(F)c2F)c1F [Compound D-4, 5-[[3-(ethylsulfonylamino)-2-fluorophenyl]methyl]-3,4-difluoro-2-(2-fluoro-4-iodoanilino)benzamide] | 196 nM | 3 nM | 16 nM | 67 nM | 5 nM | 9 µL/min/mg
18 | COCCS(=O)(=O)Nc1cccc(Cc2cc(C(N)=O)c(Nc3ccc(I)cc3F)c(F)c2F)c1F [Compound D-5, 3,4-Difluoro-2-(2-fluoro-4-iodoanilino)-5-[[2-fluoro-3-(2-methoxyethylsulfonylamino)phenyl]methyl]benzamide] | 169 nM | 7 nM | 10 nM | 71 nM | 5 nM | 28 µL/min/mg
19 | CNS(=O)(=O)Nc1cccc(Cc2cc(C(=O)NC3CC3)c(Nc3ccc(I)cc3F)c(F)c2F)c1F [Compound D-6, N-Cyclopropyl-3,4-difluoro-2-(2-fluoro-4-iodoanilino)-5-[[2-fluoro-3-(methylsulfamoylamino)phenyl]methyl]benzamide] | 55 nM | 8 nM | 8 nM | 24 nM | 2 nM | 34 µL/min/mg
20 | NS(=O)(=O)Nc1cccc(Cc2cc(C(=O)NC3CC3)c(Nc3ccc(I)cc3F)c(F)c2F)c1F [Compound D-7, N-Cyclopropyl-3,4-difluoro-2-(2-fluoro-4-iodoanilino)-5-[[2-fluoro-3-(sulfamoylamino)phenyl]methyl]benzamide] | 282 nM | 4 nM | 3 nM | 9 nM | 2 nM | 11 µL/min/mg
21 | CCS(=O)(=O)Nc1cccc(Cc2cc(C(=O)NOC)c(Nc3ccc(I)cc3F)c(F)c2F)c1F [Compound E-1, 5-[[3-(ethylsulfonylamino)-2-fluorophenyl]methyl]-3,4-difluoro-2-(2-fluoro-4-iodoanilino)-N-methoxybenzamide] | 40 nM | 12 nM | 2 nM | 6 nM | 0.4 nM | 17 µL/min/mg
